In ChEMBL document CHEMBL5465560, “Selectivity Literature for EUbOPEN Chemogenomic Library” (2024):
Blank lines part the entries; values can stand above or below the molecule they belong to.

Key:
[1] = molecular target: Dual specificity protein kinase CLK2 (Homo sapiens, UniProt P49760); details: at 10 µM
[2] = molecular target: Serine/threonine-protein kinase VRK2 (Homo sapiens) (UniProt Q86Y07); details: at 10 µM
[3] = molecular target: Platelet-derived growth factor receptor alpha (Homo sapiens, UniProt P16234); assay: Selectivity interaction (KinomeScan (DiscoverX)) EUB0001049a PDGFRA; details: at 1 µM
Chain of Platelet-derived growth factor receptor alpha (P16234 whole entry): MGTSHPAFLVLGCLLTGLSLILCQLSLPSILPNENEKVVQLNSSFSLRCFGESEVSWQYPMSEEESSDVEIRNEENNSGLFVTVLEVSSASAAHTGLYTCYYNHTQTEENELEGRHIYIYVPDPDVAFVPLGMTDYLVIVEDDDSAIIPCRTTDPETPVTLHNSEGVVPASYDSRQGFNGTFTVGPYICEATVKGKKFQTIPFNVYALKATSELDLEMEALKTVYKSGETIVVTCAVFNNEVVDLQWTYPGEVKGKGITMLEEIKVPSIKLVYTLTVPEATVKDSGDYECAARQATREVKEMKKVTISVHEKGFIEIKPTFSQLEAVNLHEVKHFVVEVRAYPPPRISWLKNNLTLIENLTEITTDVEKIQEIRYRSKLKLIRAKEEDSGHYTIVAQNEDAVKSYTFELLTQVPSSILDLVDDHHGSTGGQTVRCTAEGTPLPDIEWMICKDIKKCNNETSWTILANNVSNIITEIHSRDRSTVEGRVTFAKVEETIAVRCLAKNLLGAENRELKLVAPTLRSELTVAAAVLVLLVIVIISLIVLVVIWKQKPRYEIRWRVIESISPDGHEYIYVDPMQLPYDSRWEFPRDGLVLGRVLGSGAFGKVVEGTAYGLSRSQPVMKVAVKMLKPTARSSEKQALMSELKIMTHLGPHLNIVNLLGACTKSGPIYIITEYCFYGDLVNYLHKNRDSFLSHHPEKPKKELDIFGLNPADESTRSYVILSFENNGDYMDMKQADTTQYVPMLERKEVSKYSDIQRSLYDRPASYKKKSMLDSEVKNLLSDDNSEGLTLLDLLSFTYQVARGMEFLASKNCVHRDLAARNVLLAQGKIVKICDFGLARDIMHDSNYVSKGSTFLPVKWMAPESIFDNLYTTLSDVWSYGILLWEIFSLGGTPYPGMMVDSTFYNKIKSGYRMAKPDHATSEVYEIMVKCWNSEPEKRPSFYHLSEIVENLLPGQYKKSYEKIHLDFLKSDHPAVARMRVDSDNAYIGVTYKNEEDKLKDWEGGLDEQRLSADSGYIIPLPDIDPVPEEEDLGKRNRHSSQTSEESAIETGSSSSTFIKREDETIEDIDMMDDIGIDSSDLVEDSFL

[4] = molecular target: Protein kinase C eta type (Homo sapiens) (UniProt P24723); assay: Selectivity interaction (KinomeScan (DiscoverX)) EUB0001049a PRKCH; details: at 1 µM
[5] = molecular target: Insulin-like growth factor 1 receptor (Homo sapiens, UniProt P08069); assay: Selectivity interaction (Kinase panel (Invitrogen)) EUB0000639a IGF1R; details: at 200 nM
Chain of Insulin-like growth factor 1 receptor (P08069 31-736 limits assumed): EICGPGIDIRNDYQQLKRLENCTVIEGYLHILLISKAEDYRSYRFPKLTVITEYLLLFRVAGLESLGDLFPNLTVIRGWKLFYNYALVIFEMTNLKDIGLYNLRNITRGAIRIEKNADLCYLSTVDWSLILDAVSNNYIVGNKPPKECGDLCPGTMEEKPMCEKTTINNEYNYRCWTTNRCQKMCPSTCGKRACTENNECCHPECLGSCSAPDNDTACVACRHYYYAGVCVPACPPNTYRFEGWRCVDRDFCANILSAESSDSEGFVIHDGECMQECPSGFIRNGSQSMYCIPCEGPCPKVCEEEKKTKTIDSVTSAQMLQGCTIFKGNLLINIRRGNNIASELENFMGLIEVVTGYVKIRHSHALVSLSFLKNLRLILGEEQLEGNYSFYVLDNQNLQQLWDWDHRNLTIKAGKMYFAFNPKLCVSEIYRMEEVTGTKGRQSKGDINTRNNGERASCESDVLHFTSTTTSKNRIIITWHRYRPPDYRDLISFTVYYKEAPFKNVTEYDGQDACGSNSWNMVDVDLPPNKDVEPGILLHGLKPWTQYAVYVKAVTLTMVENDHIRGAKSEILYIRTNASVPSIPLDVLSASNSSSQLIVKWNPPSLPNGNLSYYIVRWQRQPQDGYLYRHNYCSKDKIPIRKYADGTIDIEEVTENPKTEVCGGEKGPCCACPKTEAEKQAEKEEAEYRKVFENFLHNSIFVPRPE
Chain of Insulin-like growth factor 1 receptor (P08069 741-1367 limits assumed): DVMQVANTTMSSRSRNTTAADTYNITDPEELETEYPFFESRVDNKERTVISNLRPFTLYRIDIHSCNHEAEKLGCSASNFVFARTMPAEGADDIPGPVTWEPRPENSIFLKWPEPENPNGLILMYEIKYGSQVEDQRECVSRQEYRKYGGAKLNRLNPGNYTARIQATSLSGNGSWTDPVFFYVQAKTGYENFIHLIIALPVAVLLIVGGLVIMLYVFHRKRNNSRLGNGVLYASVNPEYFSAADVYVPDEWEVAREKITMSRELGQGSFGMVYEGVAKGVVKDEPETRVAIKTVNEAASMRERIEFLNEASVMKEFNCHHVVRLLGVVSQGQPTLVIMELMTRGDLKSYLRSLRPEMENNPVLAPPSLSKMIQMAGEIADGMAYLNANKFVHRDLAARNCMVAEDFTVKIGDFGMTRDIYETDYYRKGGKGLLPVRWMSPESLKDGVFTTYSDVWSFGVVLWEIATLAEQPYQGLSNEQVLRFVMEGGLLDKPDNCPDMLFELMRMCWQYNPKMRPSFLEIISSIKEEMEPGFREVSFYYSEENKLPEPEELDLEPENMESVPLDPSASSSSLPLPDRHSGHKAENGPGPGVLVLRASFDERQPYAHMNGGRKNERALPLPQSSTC

[6] = molecular target: T1, Histone-lysine N-methyltransferase EHMT2 (Homo sapiens) (UniProt Q96KQ7); details: at 1 µM
T1 sequence (whole entry): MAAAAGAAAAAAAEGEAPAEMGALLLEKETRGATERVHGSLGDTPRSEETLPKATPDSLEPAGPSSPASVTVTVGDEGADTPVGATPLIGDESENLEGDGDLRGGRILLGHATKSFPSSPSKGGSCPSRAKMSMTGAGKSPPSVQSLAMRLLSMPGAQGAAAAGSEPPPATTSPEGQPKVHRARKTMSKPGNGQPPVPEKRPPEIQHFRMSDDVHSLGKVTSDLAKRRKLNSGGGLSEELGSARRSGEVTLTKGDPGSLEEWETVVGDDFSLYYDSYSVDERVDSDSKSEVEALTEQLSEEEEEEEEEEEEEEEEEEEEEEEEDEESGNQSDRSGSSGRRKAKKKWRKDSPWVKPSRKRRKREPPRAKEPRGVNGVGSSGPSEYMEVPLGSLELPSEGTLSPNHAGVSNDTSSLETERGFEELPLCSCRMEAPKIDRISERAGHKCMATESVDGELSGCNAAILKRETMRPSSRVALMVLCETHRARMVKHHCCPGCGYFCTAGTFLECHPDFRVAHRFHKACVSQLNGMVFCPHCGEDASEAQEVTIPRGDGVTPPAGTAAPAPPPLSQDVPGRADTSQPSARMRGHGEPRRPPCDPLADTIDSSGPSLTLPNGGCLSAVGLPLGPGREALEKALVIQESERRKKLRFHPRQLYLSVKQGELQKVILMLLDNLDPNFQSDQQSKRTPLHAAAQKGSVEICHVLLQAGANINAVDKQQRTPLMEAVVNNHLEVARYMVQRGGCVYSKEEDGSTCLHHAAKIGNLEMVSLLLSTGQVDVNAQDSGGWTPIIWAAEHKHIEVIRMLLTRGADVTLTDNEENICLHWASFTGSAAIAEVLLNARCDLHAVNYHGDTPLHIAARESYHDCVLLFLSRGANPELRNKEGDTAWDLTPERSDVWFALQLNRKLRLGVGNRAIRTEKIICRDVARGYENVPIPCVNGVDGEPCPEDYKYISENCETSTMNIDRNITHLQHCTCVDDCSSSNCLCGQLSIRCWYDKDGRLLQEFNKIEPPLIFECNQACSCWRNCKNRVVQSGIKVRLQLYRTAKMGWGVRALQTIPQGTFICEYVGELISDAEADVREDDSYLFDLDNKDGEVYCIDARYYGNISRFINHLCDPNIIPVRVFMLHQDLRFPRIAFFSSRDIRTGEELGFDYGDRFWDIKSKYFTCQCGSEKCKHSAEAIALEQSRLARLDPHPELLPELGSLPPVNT

[7] = molecular target: Cyclin-dependent kinase 16 (Homo sapiens) (UniProt Q00536); assay: Selectivity interaction (KinomeScan (DiscoverX)) EUB0000229b CDK16; details: at 10 µM
Chain of Cyclin-dependent kinase 16 (Homo sapiens) (Q00536 whole entry): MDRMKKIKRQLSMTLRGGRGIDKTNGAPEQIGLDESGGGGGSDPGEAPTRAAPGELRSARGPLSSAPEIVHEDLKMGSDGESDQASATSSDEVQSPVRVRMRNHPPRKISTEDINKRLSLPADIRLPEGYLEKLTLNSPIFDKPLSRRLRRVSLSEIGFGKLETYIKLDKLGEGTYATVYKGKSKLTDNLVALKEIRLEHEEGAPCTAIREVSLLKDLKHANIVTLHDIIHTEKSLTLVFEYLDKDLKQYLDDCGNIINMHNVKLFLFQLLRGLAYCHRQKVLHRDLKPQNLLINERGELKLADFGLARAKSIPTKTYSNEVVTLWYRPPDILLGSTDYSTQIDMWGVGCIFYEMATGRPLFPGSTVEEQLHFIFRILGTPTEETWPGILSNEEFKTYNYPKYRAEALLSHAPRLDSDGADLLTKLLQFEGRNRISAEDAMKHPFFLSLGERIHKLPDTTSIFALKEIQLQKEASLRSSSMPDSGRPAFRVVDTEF

[8] = molecular target: T2, Serine/threonine-protein kinase 17B (Homo sapiens) (UniProt O94768); assay: Selectivity interaction (KinomeScan (DiscoverX)) EUB0000045b STK17B
T2 sequence (whole entry): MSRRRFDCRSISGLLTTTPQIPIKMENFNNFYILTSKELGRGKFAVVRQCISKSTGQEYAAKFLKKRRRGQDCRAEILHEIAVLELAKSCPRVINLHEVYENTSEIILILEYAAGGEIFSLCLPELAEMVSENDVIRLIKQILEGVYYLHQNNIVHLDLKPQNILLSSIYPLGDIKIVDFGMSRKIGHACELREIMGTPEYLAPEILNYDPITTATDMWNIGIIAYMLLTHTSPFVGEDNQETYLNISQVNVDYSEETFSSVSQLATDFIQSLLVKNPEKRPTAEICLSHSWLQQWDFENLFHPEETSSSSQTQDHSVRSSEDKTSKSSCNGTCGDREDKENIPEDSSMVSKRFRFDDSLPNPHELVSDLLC

[9] = molecular target: cAMP-dependent protein kinase catalytic subunit beta (Homo sapiens) (UniProt P22694); assay: Selectivity interaction (KinomeScan (DiscoverX)) EUB0000618a PRKACB; details: at 10 µM
[10] = molecular target: Serine/threonine-protein kinase 38-like (Homo sapiens) (UniProt Q9Y2H1); assay: Selectivity interaction (Kinase panel (DSF assay)) EUB0001559a STK38L
Chain of Serine/threonine-protein kinase 38-like (Homo sapiens) (Q9Y2H1 2-464 limits assumed): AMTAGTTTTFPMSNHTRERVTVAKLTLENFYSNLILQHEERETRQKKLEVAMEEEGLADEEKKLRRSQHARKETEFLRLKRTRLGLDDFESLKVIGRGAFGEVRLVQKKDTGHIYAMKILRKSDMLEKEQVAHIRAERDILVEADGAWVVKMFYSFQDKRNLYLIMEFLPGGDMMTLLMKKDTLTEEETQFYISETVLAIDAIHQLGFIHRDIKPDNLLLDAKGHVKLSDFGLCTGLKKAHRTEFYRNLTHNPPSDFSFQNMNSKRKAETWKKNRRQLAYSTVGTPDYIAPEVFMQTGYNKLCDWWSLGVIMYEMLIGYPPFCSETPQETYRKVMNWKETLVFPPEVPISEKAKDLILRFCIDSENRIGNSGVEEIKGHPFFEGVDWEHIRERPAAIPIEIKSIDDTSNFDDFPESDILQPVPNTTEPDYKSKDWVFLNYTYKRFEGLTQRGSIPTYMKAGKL

[11] = molecular target: T3, NUAK family SNF1-like kinase 2 (Homo sapiens) (UniProt Q9H093); assay: Selectivity interaction (KinomeScan (DiscoverX)) EUB0000666a NUAK2; details: at 10 µM
T3 sequence (whole entry): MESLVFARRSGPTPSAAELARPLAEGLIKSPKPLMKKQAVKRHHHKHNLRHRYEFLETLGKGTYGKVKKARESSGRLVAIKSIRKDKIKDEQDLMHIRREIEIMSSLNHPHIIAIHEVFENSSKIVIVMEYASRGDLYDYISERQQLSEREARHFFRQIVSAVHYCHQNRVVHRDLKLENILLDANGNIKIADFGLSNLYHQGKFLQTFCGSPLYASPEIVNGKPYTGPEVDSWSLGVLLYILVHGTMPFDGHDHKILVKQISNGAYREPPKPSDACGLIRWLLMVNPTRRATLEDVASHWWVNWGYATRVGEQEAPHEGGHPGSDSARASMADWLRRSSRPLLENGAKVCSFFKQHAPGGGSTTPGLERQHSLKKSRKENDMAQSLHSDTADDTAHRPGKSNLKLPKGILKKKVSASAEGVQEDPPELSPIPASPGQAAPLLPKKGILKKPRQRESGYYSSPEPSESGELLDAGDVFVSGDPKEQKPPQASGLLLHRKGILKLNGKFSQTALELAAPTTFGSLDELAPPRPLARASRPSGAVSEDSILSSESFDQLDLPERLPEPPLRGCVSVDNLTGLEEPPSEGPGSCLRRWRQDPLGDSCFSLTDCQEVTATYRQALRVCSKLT

Chain of Serine/threonine-protein kinase VRK2 (Homo sapiens) (Q86Y07 whole entry): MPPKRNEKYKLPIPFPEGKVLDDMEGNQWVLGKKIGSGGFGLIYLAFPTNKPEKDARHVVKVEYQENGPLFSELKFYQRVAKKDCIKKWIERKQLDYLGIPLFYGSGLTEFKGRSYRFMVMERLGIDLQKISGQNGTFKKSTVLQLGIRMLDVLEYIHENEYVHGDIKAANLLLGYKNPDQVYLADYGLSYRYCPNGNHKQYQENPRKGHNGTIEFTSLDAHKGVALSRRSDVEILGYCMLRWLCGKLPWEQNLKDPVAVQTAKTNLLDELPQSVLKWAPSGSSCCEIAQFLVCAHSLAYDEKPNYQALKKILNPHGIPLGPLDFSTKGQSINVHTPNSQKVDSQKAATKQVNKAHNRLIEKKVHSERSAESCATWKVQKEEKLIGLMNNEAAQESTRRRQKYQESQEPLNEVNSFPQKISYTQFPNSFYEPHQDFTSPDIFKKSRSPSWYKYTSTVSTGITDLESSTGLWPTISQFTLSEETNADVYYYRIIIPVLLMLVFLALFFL
Chain of Dual specificity protein kinase CLK2 (P49760 whole entry, looked up): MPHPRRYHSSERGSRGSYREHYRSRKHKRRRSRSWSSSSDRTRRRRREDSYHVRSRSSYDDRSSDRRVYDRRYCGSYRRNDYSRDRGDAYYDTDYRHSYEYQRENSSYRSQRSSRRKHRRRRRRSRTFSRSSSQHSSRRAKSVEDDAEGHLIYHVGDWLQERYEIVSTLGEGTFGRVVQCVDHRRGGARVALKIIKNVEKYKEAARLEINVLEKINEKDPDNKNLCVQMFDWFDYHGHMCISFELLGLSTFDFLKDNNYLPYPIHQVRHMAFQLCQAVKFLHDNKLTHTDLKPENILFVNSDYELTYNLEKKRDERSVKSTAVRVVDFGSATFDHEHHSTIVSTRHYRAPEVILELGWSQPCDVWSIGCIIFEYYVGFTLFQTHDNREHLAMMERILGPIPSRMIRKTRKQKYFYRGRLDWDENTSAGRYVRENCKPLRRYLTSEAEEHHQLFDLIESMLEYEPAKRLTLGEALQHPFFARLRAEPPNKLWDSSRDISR

SMILES: Cc1cc([C@@H](C)Nc2ccccc2C(=O)O)c2nc(N3CCOCC3)cc(=O)n2c1 [AZD-6482]
% of control [1]: 70% | % of control [2]: 100%

SMILES: COc1cc(Nc2nc(C)cc(-c3cnn4nc(OC)ccc34)n2)cc(C(F)(F)F)c1
% of control [3]: 69% | % of control [4]: 100%

% of inhibition [5]: 7.84%
SMILES: CC[C@@H]1[C@H](F)C(=O)N[C@@H]1COc1nccc2cc(C(N)=O)c(OC)cc12 [ZIMLOVISERTIB]

% activity [6]: > 90%
SMILES: CNCCN1CCC(c2cc(CN(C)C(=O)c3cccc(Oc4ccccc4)c3)ccn2)CC1

SMILES: COc1cc(N(C)c2ccnc3ccc(C(F)(F)F)cc23)cc(OC)c1OC
% binding [7]: 85%

SMILES: C=CC(=O)Nc1cc(-n2c(=O)ccc3cnc4ccc(-c5ccc(NS(C)(=O)=O)cc5)cc4c32)ccc1C
% of control ([8]; at 1 µM): 100% | % of control ([8]; at 10 µM): 100%

SMILES: O[C@H]1CC[C@H](Nc2ncc3nc(Nc4c(F)cc(F)cc4F)n([C@H]4CCOC4)c3n2)CC1
% of control [9]: 100%

dTM [10]: 0 K
SMILES: CN(C(=O)c1cnn2cccnc12)c1cc2c(cc1N1CCOCC1)C(=O)N(C[C@@H](F)C(C)(C)O)C2

SMILES: O=C(NOC[C@H](O)CO)c1ccc(F)c(F)c1Nc1ccc(I)cc1F
% of control [11]: 99%
